Measured values as given in article PMC6934184, “Selective DNA-PKcs inhibition extends the therapeutic index of localized radiotherapy and chemotherapy” (The Journal of Clinical Investigation, 2019).

Target: T1, EGFR (ErbB1) L861Q (Homo sapiens, UniProt P00533, L861Q)
T1 construct: purchased Thermo Fisher Scientific (Life Technologies) SelectScreen
Assay: SelectScreen Z'LYTE
Assay type: biochemical
Outline: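 Compound tested in SelectScreen activity assays, Z'LYTE for CSF1R, CDK1/cyclin B and MAP2K6 and Adapta for CAMK1. ATP for CAMK1 was listed as 10, and Km app was used for CSF1R. Results are expressed in percent.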

T1 sequence (P00533 25-1210 L861Q): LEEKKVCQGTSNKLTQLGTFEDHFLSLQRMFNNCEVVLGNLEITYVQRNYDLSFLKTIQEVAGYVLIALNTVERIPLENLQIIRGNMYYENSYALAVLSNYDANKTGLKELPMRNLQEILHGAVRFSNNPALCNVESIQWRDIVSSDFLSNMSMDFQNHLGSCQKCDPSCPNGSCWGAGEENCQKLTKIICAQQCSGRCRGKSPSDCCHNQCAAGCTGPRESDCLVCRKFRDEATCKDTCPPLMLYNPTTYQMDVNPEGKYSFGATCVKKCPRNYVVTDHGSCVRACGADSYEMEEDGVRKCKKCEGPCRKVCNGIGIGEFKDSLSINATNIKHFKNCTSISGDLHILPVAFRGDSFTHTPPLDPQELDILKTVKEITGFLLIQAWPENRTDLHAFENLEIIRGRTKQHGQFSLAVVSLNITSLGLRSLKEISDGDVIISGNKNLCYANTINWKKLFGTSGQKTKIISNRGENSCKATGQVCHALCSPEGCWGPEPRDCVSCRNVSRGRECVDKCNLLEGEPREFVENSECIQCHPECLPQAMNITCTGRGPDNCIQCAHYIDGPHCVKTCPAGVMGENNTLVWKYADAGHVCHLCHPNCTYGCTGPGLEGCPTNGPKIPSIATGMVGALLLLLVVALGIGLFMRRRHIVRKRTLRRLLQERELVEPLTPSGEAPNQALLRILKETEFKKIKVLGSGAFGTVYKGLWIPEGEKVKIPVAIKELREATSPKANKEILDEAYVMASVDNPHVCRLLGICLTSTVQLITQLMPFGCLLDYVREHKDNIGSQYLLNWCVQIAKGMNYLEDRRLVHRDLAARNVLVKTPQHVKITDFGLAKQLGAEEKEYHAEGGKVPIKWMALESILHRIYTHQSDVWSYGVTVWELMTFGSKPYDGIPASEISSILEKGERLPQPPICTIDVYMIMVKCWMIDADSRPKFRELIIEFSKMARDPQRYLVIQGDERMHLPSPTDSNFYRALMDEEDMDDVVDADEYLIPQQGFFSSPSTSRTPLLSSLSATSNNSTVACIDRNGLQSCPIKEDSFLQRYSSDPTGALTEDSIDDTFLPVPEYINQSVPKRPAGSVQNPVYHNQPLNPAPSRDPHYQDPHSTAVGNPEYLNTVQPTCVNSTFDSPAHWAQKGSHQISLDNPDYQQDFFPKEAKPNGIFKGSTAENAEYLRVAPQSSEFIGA

SMILES: CN(C(=O)CN1CCOCC1)c1ccc2sc3c(-c4cccc5c(=O)cc(N6CC7CCC(C6)O7)oc45)cccc3c2c1 [NU5455]
- inhibition at 1 µM: 2.2%
